These results are taken from patent US11225505B2, “Antimicrobial polymyxin derivative compounds” (MONASH UNIVERSITY, priority 2015, dated 2022).

≈ marks a conversion by molar mass, not a printed value. Where a SMILES comes first, the peptide text is derived from it. Bridges are numbered along the chain shown (N, C = ends). [ ]: non-standard residue; d: D form. The star is where a group is joined. X1 = O=C(c1ncc(Cl)cc1Cl)*; Dab = NCC[C@H](N)C(=O)O; Abu = CC[C@H](N)C(=O)O; Dap = NC[C@H](N)C(=O)O Bounds are passed on as bounds.

Data set [1] deals with Pseudomonas aeruginosa FADDI-PA01. Format: cell-based. Conditions: FADDI-. The method in brief:
(§1)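 Lipopeptides (TFA salts) tested against Gram-negative strains by CLSI broth microdilution using cation-adjusted Mueller-Hinton broth; MIC recorded, polymyxin B sulphate as control.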

Data set [2] relates to Acinetobacter baumannii ATCC 17978. Format: cell-based. The settings on record: ATCC 17978. A digest of the protocol:
as §1

For data set [3], the system named is Klebsiella pneumoniae FADDI-KP032. In kind it is cell-based. Conditions: FADDI-KP032. A digest of the protocol:
as §1

In data set [4] the test system is Klebsiella pneumoniae Kp BM1. Format: cell-based. The settings on record: Kp BM1. A digest of the protocol: (§2)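 Broth microdilution MIC per CLSI in cation-adjusted Mueller-Hinton broth, lipopeptides tested as TFA salts. Polymyxin B sulphate served as control.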
For data set [5], the system named is Pseudomonas aeruginosa FADDI-PA038. Format: cell-based. Conditions: FADDI-PA038. A digest of the protocol: as §1
Data set [6] has as its system Enterobacter cloacae FADDI-EC003. Format: cell-based. The settings on record: FADDI-EC003. The method in brief:
as §1

For data set [7], the system named is Pseudomonas aeruginosa FADDI-PA022. Format: cell-based. The settings on record: FADDI-PA022. A digest of the protocol: as §1
The subject of data set [8] is Pseudomonas aeruginosa ATCC 27853. Format: cell-based. The settings on record: ATCC 27853. A digest of the protocol: as §1
Data set [9] deals with Klebsiella pneumoniae FADDI-KP022. Format: cell-based. The settings on record: FADDI-KP022. The method in brief: as §1
Data set [10] concerns Acinetobacter baumannii FADDI-AB034. Format: cell-based. The settings on record: FADDI-AB034. A digest of the protocol:
as §1

Data set [11] has as its system Enterobacter cloacae FADDI-EC001. In kind it is cell-based. Conditions: FADDI-EC001. A digest of the protocol:
as §2

Data set [12] deals with Enterobacter cloacae FADDI-EC006. Format: cell-based. The settings on record: FADDI-EC006. The method in brief:
as §1

A further data set concerns mouse kidney. The settings on record: in vivo, 180 mg/kg. From the text: Lesions were rated as follows: mild acute tubular damage with tubular dilation, prominent nuclei and a few pale tubular casts (Grade 1); severe acute tubular damage with necrosis of tubular epithelial cells and numerous tubular casts (Grade 2); acute cortical necrosis/infarction of tubules and glomeruli with or without papillary necrosis (Grade 3). The grades were given the following scores: grade 1=1, grade 2=4, and grade 3=10. The percentage of area of the kidney slice showing histological damage was scored as follows: <1%=0, 1 to <5%=1, 5 to <10%=2, 10 to <20%=3, 20 to <30%=4, 30 to <40%=5, and >40%=6. The overall kidney histological score was calculated as the product of the percentage score and grade score. These scores were then expressed as a semiquantitative score (Kidney Histological Score) on a scale of 0 to +5 for renal histological changes. […]
Lung infection was produced as follows. […] Bacterial burdens in lungs were determined at 2 h after inoculation (untreated controls) and 24 h later (untreated controls and compound-treated mice). […] The bacterial colonies on the agar plate were counted and the log10 CFU/lung in each mouse was calculated (FIG. 1).
The right kidney from each of the treated animals was removed and assessed for histological damage as described for Example 3. […]

As to `CC[C@@H]1NC(=O)[C@@H](CC(C)C)NC(=O)[C@H](CCN)NC(=O)[C@@H](NC(=O)[C@H](CN)NC(=O)[C@@H](NC(=O)[C@H](CCN)NC(=O)c2ncc(Cl)cc2Cl)[C@@H](C)O)CCNC(=O)[C@H]([C@@H](C)O)NC(=O)[C@H](CCN)NC(=O)[C@H](CCN)NC1=O` [Compound 1] (X1-[Dab]T[Dap][Dab][Dab][dL][Abu][Dab][Dab]T; lactam 4-C), the Minimum inhibitory concentration amounted to 0.5 mg/L (≈ 0.431 µM) in [1]; 2 mg/L (≈ 1.72 µM) in data set [2]; 0.5 mg/L (≈ 0.431 µM) in [3]; 0.25 mg/L (≈ 0.215 µM) in data set [4]; 1 mg/L (≈ 0.861 µM) in [5]; 2 mg/L (≈ 1.72 µM) in [6]. Further, the Minimum inhibitory concentration is recorded as 1 mg/L (≈ 0.861 µM) in data set [7]; 0.5 mg/L (≈ 0.431 µM) in [8]; under 0.125 mg/L in data set [9]; 2 mg/L (≈ 1.72 µM) in [10]; under 0.125 mg/L in data set [11]; 0.5 mg/L (≈ 0.431 µM) in [12]. The “histological damage to the kidneys (in words)” value with mouse kidney is “no histological damage”.
